In article PMC7926937, “Suramin Targets the Conserved Ligand-Binding Pocket of Human Raf1 Kinase Inhibitory Protein” (Molecules, 2021):
Numbering of substitutions follows the chain as printed. Read-outs that look alike come from different tables or passages of the source.

How the values were obtained:
hRKIP [1] = target: T1, hRKIP (Homo sapiens, UniProt P30086); assay: BLI assay of ligand binding to wild-type hRKIP
T1 construct: made in house; host or cells: E. coli
Description: (§1) Both unlabeled and ^15N-labeled hRKIP proteins were prepared as described previously. Eight hRKIP mutants (P74L, Y81A, S109A, P111L, P112L, K113A, W173A, and Y181A) were generated by site-directed mutagenesis using the vector of pReceiver-B01a-RKIP as the template and confirmed by DNA sequencing. All protein purifications were performed at 4 °C. Protein purities were verified by polyacrylamide gel electrophoresis, and protein concentrations were measured by NanoVue (GE Heathcare Co, Boston, MA, USA).
(§2) The interaction between hRKIP and suramin was detected by using the ForteBio Octet Red system (ForteBio, Inc, San Francisco, CA, USA). The wild-type His-tagged hRKIP protein or its mutant was immobilized onto NTA reactive biosensors, and the captured biosensors were individually dipped into the wells containing various concentrations of suramin (25, 50, 100, 200, and 400 μM). The association at each suramin concentration was detected for 900 s, while the dissociation was monitored for 1800 s. The sensors loading hRKIP without suramin were used as controls to correct baseline drifts. The wells containing various concentrations of suramin without loading protein served as references. The association and dissociation responses were corrected and processed using Octet Data Analysis Software (Version 7.0, ForteBio, Inc, San Francisco, CA, USA). The interferometry data were fitted using the 1:1 Langmuir binding model.

hRKIP [2] = target: T1, hRKIP; parameters: method as in PMID 30137201; details: PE binding to hRKIP ref 34; cited from earlier work
hRKIP K113A mutant = target: T2, hRKIP K113A mutant (Homo sapiens, UniProt P30086, K113A); assay: BLI assay of suramin binding to hRKIP mutant K113A
T2 construct: made in house; host or cells: E. coli
T2 sequence (P30086 1-187 K113A): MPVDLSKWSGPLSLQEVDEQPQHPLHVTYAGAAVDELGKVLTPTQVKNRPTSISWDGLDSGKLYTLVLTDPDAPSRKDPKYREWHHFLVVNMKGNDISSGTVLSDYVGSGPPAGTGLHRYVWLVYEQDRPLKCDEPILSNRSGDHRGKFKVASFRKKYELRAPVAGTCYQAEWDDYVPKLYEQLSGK
Description: as §1, §2

[3] = tested on: HEK293T cells transfected with hRKIP; assay: Viability of HEK293T cells transfected with hRKIP; format: cell-based, human
Description: We further explored the effects of suramin treatment on hRKIP-mediated Ras/Raf1/MEK/ERK signal pathway by detecting the phosphorylation level of ERK, which could only be activated by MEK [37]. Principally, hRKIP binding with Raf1 inhibits the phosphorylation of Raf1, thereby blocking the following ERK phosphorylation and downregulating the MAPK pathway. […] The transfected cells were then treated with 160 μM suramin. The suramin concentration was experimentally determined as the maximal tolerant concentration for cell viability (Figure 4c), which was consistent with that used usually in clinical patients. […] As a result, the free Raf1 kinase was phosphorylated and the Ras/Raf1/MEK/ERK pathway was promoted with an enhanced phosphorylation level of the following ERK kinase.
Figure 4 Effects of suramin treatment on hRKIP-mediated Ras/Raf1/MEK/ERK pathway in HEK293 cells (a,b) Western blot analysis for the effect of suramin treatment on hRKIP-mediated ERK phosphorylation;(c) Effect of suramin treatment on viabilities of HEK293T cells transfected with hRKIP. (d,e) Western blot analysis for the effect of suramin on the ERK phosphorylation of HEK293T cell. * p <0.1; *** p <0.001; **** p <0.0001, n = 3 for each group.

hRKIP Y81A mutant = target: T3, hRKIP Y81A mutant (Homo sapiens, UniProt P30086, Y81A); assay: BLI assay of suramin binding to hRKIP mutant Y81A
T3 construct: made in house; host or cells: E. coli
T3 sequence (P30086 1-187 Y81A): T2 sequence (P30086 1-187 K113A) with Y81A, A113K
Description: as §1, §2

hRKIP P112L mutant = target: T4, hRKIP P112L mutant (Homo sapiens, UniProt P30086, P112L); assay: BLI assay of suramin binding to hRKIP mutant P112L
T4 construct: made in house; host or cells: E. coli
T4 sequence (P30086 1-187 P112L): T2 sequence (P30086 1-187 K113A) with P112L, A113K
Description: as §1, §2

hRKIP P74L mutant = target: T5, hRKIP P74L mutant (Homo sapiens, UniProt P30086, P74L); assay: BLI assay of suramin binding to hRKIP mutant P74L
T5 construct: made in house; host or cells: E. coli
T5 sequence (P30086 1-187 P74L): T2 sequence (P30086 1-187 K113A) with P74L, A113K
Description: as §1, §2

hRKIP Y181A mutant = target: T6, hRKIP Y181A mutant (Homo sapiens, UniProt P30086, Y181A); assay: BLI assay of suramin binding to hRKIP mutant Y181A
T6 construct: made in house; host or cells: E. coli
T6 sequence (P30086 1-187 Y181A): T2 sequence (P30086 1-187 K113A) with A113K, Y181A
Description: as §1, §2

hRKIP W173A mutant = target: T7, hRKIP W173A mutant (Homo sapiens, UniProt P30086, W173A); assay: BLI assay of suramin binding to hRKIP mutant W173A
T7 construct: made in house; host or cells: E. coli
T7 sequence (P30086 1-187 W173A): T2 sequence (P30086 1-187 K113A) with A113K, W173A
Description: as §1, §2

[4] = tested on: hRKIP-mediated Ras/Raf1/MEK/ERK signal pathway; assay: ERK phosphorylation (Western blot) in hRKIP-transfected HEK293T cells; format: cell-based, human; details: 160 µM suramin, 30 min before EGF stimulation, compared with no suramin treatment
Description: (§3) Human HEK293T cells were used as control group. HEK293T cells were first transfected with the exogenous hRKIP gene (the hRKIP-treated group), then the hRKIP transfected cells were serum starved overnight (10 h) and then incubated with 160 μM suramin for 30 min before EGF stimulation (the hRKIP-suramin-treated group). The transfection process was performed as following: 4 μg of pcDNA3.0-hRKIP was mixed with 75 μL lipotap (Beyotime, China), and the mixture was incubated with HEK293T cell in the dulbecco’s modified eagle medium (DMEM) with 100 units/mL penicillin (Sagon, Shanghai, China), 100 μg/mL streptomycin (Sagon, Shanghai, China) and 10% fetal bovine serum (Hyclone, Logan, UT, USA) for 6 h. Then the lipotap-DNA mixture was removed, and the transfected cell was further cultured in fresh medium. For all the three groups, the cells were cultured in DMEM supplemented with serum and […] at 37 °C. At 70% confluency, 10 ng/mL EGF was used to stimulate the Ras/Raf/MEK/ERK signal pathway for 5 min. The reaction was stopped by phosphate-buffered saline. […]
(§4) Cellular assay data are presented as mean ± standard deviation (SD). […] Statistical significances were determined using Student’s t-test. p < 0.05 was considered statistically significant.

hRKIP S109A mutant = target: T8, hRKIP S109A mutant (Homo sapiens, UniProt P30086, S109A); assay: BLI assay of suramin binding to hRKIP mutant S109A
T8 construct: made in house; host or cells: E. coli
T8 sequence (P30086 1-187 S109A): T2 sequence (P30086 1-187 K113A) with S109A, A113K
Description: as §1, §2

HEK293T cell = assay: MTS experiments on HEK293T cells; format: cell-based; details: Homo sapiens, HEK-293T
[5] = tested on: phosphorylation level of p-ERK in HEK293T cell; assay: ERK phosphorylation (Western blot) in HEK293T cells; format: cell-based, human; details: 160 μM suramin
Description: as §3, §4

T1 sequence (P30086 whole entry): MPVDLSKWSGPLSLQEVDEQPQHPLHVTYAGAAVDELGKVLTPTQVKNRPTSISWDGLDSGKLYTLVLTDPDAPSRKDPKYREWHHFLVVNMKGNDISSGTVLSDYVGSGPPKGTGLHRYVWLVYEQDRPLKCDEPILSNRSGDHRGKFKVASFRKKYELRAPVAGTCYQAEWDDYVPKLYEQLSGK

For `NCCOP(=O)(O)O` [PE, oO-phosphorylethanolamine], the kon (hRKIP [1]; BLI, wild-type RKIP) is given as 3.0 M⁻¹ s⁻¹, the “dissociation rate (koff)” value (hRKIP [1]; BLI, wild-type hRKIP) is given as 0.0264 s⁻¹ and the Kd (hRKIP [2]) is given as 8810 µM.

`Cc1ccc(C(=O)Nc2ccc(S(=O)(=O)O)c3cc(S(=O)(=O)O)cc(S(=O)(=O)O)c23)cc1NC(=O)c1cccc(NC(=O)Nc2cccc(C(=O)Nc3cc(C(=O)Nc4ccc(S(=O)(=O)O)c5cc(S(=O)(=O)O)cc(S(=O)(=O)O)c45)ccc3C)c2)c1` [suramin, Suramin] gave a Kd (hRKIP K113A mutant) of 87.2 µM, a kobs (hRKIP K113A mutant) of 0.00038 s⁻¹ and a koff (hRKIP K113A mutant) of 0.000295 s⁻¹. It also gave a kon (hRKIP K113A mutant) of 3.38 M⁻¹ s⁻¹, a kobs (hRKIP [1]; BLI, wild-type RKIP) of 0.00368 s⁻¹ and a Kd (hRKIP [1]; BLI, wild-type RKIP, 1:1 Langmuir binding model) of 23.8 µM. It also gave a koff (hRKIP [1]; BLI, wild-type RKIP, read-out: koff) of 0.000207 s⁻¹, a kon (hRKIP [1]; BLI, wild-type RKIP, read-out: kon) of 8.69 M⁻¹ s⁻¹ and a koff (hRKIP [1]; BLI, wild-type hRKIP, read-out: dissociation rate (koff)) of 0.0002 s⁻¹. For the same molecule, the “higher affinity for binding to hRKIP compared with PE” value (hRKIP [1]; ratio of KD values, PE as native substrate) was “about 370 fold”, the “maximal tolerant concentration for cell viability” value [3] was 160 µM and the Kd (hRKIP Y81A mutant; Y81A mutant) was 29.7 µM. For the same molecule, the kobs (hRKIP Y81A mutant; Y81A mutant) was 0.000291 s⁻¹, the koff (hRKIP Y81A mutant; Y81A mutant) was 0.000158 s⁻¹ and the kon (hRKIP Y81A mutant; Y81A mutant) was 5.31 M⁻¹ s⁻¹. For the same molecule, the “decrease of affinity of suramin relative to hRKIP” value (hRKIP Y81A mutant; Y81A mutant vs wild type) was “around 20%”, the Kd (hRKIP P112L mutant; P112L mutant) was 20.4 µM and the kobs (hRKIP P112L mutant; P112L mutant) was 0.00037 s⁻¹. The koff (hRKIP P112L mutant; P112L mutant) was 0.000166 s⁻¹, the kon (hRKIP P112L mutant; P112L mutant) was 8.14 M⁻¹ s⁻¹ and the “change of affinity of suramin relative to hRKIP” value (hRKIP P112L mutant; P112L mutant vs wild type) was “slightly increased affinity”. The Kd (hRKIP P74L mutant; P74L mutant) was 37.1 µM, the kobs (hRKIP P74L mutant; P74L mutant) was 0.000367 s⁻¹ and the koff (hRKIP P74L mutant; P74L mutant) was 0.000275 s⁻¹. The kon (hRKIP P74L mutant; P74L mutant) was 7.39 M⁻¹ s⁻¹, the “decrease of affinity of suramin relative to hRKIP” value (hRKIP P74L mutant; P74L mutant vs wild type) was “more than 30%” and the Kd (hRKIP Y181A mutant; Y181A mutant) was 711 µM. It also gave a kobs (hRKIP Y181A mutant; Y181A mutant) of 0.000177 s⁻¹, a koff (hRKIP Y181A mutant; Y181A mutant) of 0.000156 s⁻¹ and a kon (hRKIP Y181A mutant; Y181A mutant) of 0.22 M⁻¹ s⁻¹. For the same molecule, the “decrease of affinity of suramin relative to hRKIP” value (hRKIP Y181A mutant; Y181A mutant vs wild type) was “more than 75%”, the Kd (hRKIP W173A mutant) was 77.3 µM and the kobs (hRKIP W173A mutant) was 0.000553 s⁻¹. For the same molecule, the koff (hRKIP W173A mutant) was 0.000241 s⁻¹, the kon (hRKIP W173A mutant) was 3.12 M⁻¹ s⁻¹ and the “increase of ERK phosphorylation level” value [4] was “around 3 times”. For the same molecule, the Kd (hRKIP S109A mutant; S109A mutant) was 26 µM, the kobs (hRKIP S109A mutant; S109A mutant) was 0.00295 s⁻¹ and the koff (hRKIP S109A mutant; S109A mutant) was 0.00018 s⁻¹. For the same molecule, the kon (hRKIP S109A mutant; S109A mutant) was 6.93 M⁻¹ s⁻¹, the “decrease of binding affinity of suramin relative to hRKIP” value (hRKIP S109A mutant; S109A mutant vs wild type) was “around 10%” and the IC50 (HEK293T cell) was 479 µM. The “enhancement of phosphorylation level of p-ERK” value [5] was “around 48%”.
